Measurements taken from patent publication US11401270B2, “Alcoxyamino derivatives for treating pain and pain related conditions” (ESTEVE PHARMACEUTICALS, S.A., priority 2017, dated 2022).
Read-outs that look alike come from different tables or passages of the source.

What was measured:
[1] = target: Human norepinephrine transporter (NET) (Homo sapiens (Human), UniProt P23975); experiment: Binding Assay to Human Norepinephrine Transporter (NET); settings: Table 2, dual compounds; human NET enriched membranes, 5 nM [3H]-Nisoxetin; read-out: Ki(nM) NET Hum
Description: Binding Assay to Human Norepinephrine Transporter (NET).
Human norepinephrine transporter (NET) enriched membranes (5 μg) were incubated with 5 nM of radiolabeled [3H]-Nisoxetin in assay buffer containing 50 mM Tris-HCl, 120 mM NaCl, 5 mM KCl, pH 7.4.
NSB (non specific binding) was measured by adding 10 μM desipramine. The binding of the test compound was measured in five different concentrations. After 60 min incubation at 4° C., binding reaction was terminated by filtering through Multiscreen GF/C (Millipore) presoaked in 0.5% polyethyleneimine in Vacuum Manifold Station, followed by 3 washes with ice-cold filtration buffer containing 50 mM Tris-HCl, 0.9% NaCl, pH 7.4.
Filter plates were dried at 60° C. for 1 hour and 30 μl of scintillation cocktail were added to each well before radioactivity reading.

[2] = target: Human α2δ-1 subunit of Cav2.2 calcium channel (Homo sapiens (Human), UniProt P54289); experiment: Binding Assay to Human α2δ-1 Subunit of Cav2.2 Calcium Channel; settings: human α2δ-1 enriched membranes, 15 nM [3H]-Gabapentin, read-out: Ki(nM) alpha2delta Hum
How it was run: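 Radioligand filtration binding at the α2δ-1 subunit, test compound at five concentrations; nonspecific binding defined with 10 μM pregabalin. Incubated 60 min at 27 °C, stopped by GF/C filtration (0.5% PEI presoaked) with ice-cold 50 mM Tris-HCl pH 7.4 washes; bound radioactivity counted by scintillation.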

Chain of Human norepinephrine transporter (NET) (P23975 whole entry): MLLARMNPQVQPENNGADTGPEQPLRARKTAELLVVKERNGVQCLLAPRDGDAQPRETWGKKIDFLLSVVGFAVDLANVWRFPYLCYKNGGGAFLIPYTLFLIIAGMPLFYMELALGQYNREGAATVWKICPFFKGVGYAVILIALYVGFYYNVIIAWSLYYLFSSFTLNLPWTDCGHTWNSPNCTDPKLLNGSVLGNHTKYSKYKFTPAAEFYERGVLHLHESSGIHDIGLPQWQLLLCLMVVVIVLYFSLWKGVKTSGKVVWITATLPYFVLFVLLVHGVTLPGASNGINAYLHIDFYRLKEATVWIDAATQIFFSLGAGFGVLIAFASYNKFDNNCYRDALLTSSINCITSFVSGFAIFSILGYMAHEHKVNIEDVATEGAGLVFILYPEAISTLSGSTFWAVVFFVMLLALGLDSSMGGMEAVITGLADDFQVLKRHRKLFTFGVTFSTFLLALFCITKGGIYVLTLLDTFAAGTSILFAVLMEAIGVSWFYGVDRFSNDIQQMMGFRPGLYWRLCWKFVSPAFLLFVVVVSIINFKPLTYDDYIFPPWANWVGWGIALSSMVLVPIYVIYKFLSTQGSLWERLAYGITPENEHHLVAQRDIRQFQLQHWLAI
Chain of Human α2δ-1 subunit of Cav2.2 calcium channel (P54289 25-1103): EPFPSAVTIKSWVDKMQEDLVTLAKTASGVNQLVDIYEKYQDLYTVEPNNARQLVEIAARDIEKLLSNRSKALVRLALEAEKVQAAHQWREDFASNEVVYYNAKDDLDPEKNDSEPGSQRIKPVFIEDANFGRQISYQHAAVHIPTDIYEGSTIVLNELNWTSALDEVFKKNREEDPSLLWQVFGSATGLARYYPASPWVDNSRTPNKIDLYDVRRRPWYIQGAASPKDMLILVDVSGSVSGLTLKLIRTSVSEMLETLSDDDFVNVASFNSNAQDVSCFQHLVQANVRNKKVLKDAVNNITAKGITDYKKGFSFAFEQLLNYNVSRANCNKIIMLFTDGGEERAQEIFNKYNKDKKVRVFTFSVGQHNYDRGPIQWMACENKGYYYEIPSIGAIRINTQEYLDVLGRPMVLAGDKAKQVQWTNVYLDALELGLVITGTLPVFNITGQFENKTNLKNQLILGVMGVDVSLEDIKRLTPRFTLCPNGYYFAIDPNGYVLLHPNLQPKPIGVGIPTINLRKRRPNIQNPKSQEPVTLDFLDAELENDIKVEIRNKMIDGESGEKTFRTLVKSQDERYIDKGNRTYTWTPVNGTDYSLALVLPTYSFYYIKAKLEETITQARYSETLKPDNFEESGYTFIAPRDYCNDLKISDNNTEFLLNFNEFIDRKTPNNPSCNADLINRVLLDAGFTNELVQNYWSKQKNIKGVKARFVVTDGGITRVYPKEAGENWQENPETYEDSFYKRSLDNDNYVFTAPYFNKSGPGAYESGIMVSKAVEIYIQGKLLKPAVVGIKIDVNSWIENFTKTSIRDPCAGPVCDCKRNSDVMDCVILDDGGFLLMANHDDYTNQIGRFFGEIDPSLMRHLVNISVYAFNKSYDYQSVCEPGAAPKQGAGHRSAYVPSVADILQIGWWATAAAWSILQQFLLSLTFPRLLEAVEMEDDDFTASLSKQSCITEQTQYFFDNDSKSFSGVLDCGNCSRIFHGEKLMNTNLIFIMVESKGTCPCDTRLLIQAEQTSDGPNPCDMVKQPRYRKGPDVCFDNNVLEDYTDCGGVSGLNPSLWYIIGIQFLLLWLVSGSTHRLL

Ki [1] [nM] | Ki ([2]; Table 1) [nM] | Ki ([2]; Table 2, dual compounds) [nM] | Compound
< 100 | < 100 | < 100 | CNCC[C@H](Oc1ccc(CN2CCN(C)c3nc(N)ccc3C2=O)cc1)c1cccs1 [Example 103, (S)-8-amino-1-methyl-4-(4-(3-(methylamino)-1-(thiophen-2-yl)propoxy)benzyl)-1,2,3,4-tetrahydro-5H-pyrido[2,3-e][1,4]diazepin-5-one]
100 to 500 | 100 to 500 | 100 to 500 | CNCC[C@H](Oc1cccc(N2CCN(C)c3nc(N)ccc3C2=O)c1)c1cccs1 [Example 83, (S)-8-amino-1-methyl-4-(3-(3-(methylamino)-1-(thiophen-2-yl)propoxy)phenyl)-1,2,3,4-tetrahydro-5H-pyrido[2,3-e][1,4]diazepin-5-one]
500 to 1000 | 100 to 500 | 100 to 500 | CNCC[C@@H](Oc1cccc(N2CCN(C(C)C)CCC2=O)c1)c1cccs1 [Example 67, (R)-1-isopropyl-4-(3-(3-(methylamino)-1-(thiophen-2-yl)propoxy)phenyl)-1,4-diazepan-5-one]
< 100 | < 100 | < 100 | CNCC[C@H](Oc1ccc(CN2CCN(C)c3ncccc3C2=O)c(F)c1)c1ccccc1 [Example 116, (S)-4-(2-fluoro-4-(3-(methylamino)-1-phenylpropoxy)benzyl)-1-methyl-1,2,3,4-tetrahydro-5H-pyrido[2,3-e][1,4]diazepin-5-one]
< 100 | < 100 | < 100 | CNCC[C@H](Oc1ccc(CN2CCN(C)c3ncccc3C2=O)c(F)c1)c1cccc(F)c1 [Example 136, (S)-4-(2-fluoro-4-(1-(3-fluorophenyl)-3-(methylamino)propoxy)benzyl)-1-methyl-1,2,3,4-tetrahydro-5H-pyrido[2,3-e][1,4]diazepin-5-one]
< 100 | 500 to 3000 | 500 to 3000 | CNCC[C@@H](Oc1cccc(N2CCN(C(C)C)CCC2=O)c1)c1ccsc1 [Example 76, (R)-1-isopropyl-4-(3-(3-(methylamino)-1-(thiophen-3-yl)propoxy)phenyl)-1,4-diazepan-5-one]
< 100 | 100 to 500 | 100 to 500 | CNCC[C@H](Oc1ccc(CN2CCN(C)c3nc(N)ccc3C2=O)c(F)c1)c1ccccc1 [Example 137, (S)-8-amino-4-(2-fluoro-4-(3-(methylamino)-1-phenylpropoxy)benzyl)-1-methyl-1,2,3,4-tetrahydro-5H-pyrido[2,3-e][1,4]diazepin-5-one]
100 to 500 | 500 to 3000 | 500 to 3000 | CNCCC(Oc1cccc(N2CCN(C)c3nc(N(C)C)ccc3C2=O)c1)c1cccs1 (stereo not drawn) [Example 70, 8-(Dimethylamino)-1-methyl-4-(3-(3-(methylamino)-1-(thiophen-2-yl)propoxy)phenyl)-1,2,3,4-tetrahydro-5H-pyrido[2,3-e][1,4]diazepin-5-one]
100 to 500 | 500 to 3000 | 500 to 3000 | CNCC[C@H](Oc1ccc(CN2CCN(C)c3cccnc3C2=O)cc1)c1cccs1 [Example 97, (S)-1-methyl-4-(4-(3-(methylamino)-1-(thiophen-2-yl)propoxy)benzyl)-1,2,3,4-tetrahydro-5H-pyrido[3,2-e][1,4]diazepin-6-one]
100 to 500 | 100 to 500 | 100 to 500 | CNCC[C@H](Oc1ccc(CN2CCN(C)c3ncccc3C2=O)c(C)c1)c1ccccc1 [Example 114, (S)-1-methyl-4-(2-methyl-4-(3-(methylamino)-1-phenylpropoxy)benzyl)-1,2,3,4-tetrahydro-5H-pyrido[2,3-e][1,4]diazepin-5-one]
100 to 500 | 100 to 500 | 100 to 500 | CNCC[C@H](Oc1ccc(CN2CCN(C)c3cnccc3C2=O)cc1)c1cccs1 [Example 96, (S)-1-methyl-4-(4-(3-(methylamino)-1-(thiophen-2-yl)propoxy)benzyl)-1,2,3,4-tetrahydro-5H-pyrido[3,4-e][1,4]diazepin-5-one]
